According to US20260327198A1, “2-DIARYLMETHYL-4-AMINOTETRAHYDROPYRAN SULFONIMIDAMIDES AS ANTICANCER, ANTIINFLAMMATORY, ANTIFIBROTIC AND NEUROPROTECTIVE AGENTS” (Atux Iskay LLC, priority 2022, published 2026):

Assays:
[1] = system: mouse models of allergic airway disease; details: small molecule activators of PP2A; cited from earlier work
[2] = system: phosphatase activity in ApoE transfected A172 glioblastoma cells; assay: Cellular in vitro phosphatase activation assay (Malachite Green, ApoE cDNA transfected A172 cells); assay type: cell-based; details: Homo sapiens, A 172, A172 glioblastoma cells transfected with ApoE cDNA, 24 hours, n = 3, read-out: % increase from ApoE transfected cell at 5 μM test compound concentration
Method: Cellular in vitro phosphatase activation assay was performed using the method of Theendakara et al, Molecular and Cellular Neuroscience, 83 (2017), pages 83-91 which is described below:
A172 glioblastoma cells were cultured in Dulbecco's modified Eagle's medium (DMEM) supplemented with 10% fetal bovine serum and 1% Penicillin-streptomycin. Incubation was performed at 37° C. and 5% CO2.
A172 cells were seeded at 5×10^5 cells/2.5 ml growth medium (without antibiotics) per well on 6-well tissue culture plates. Cells were incubated overnight to allow them to recover and reattach. […]
After 24 hrs, cells were washed twice with imidazole buffer and lysed using NP-40 Lysis buffer. […] The amount of phosphate release in the assay was determined by measuring absorbance at 620 nm using the Spectramax i3x plate reader.
The absorbance intensity data were analyzed using the computer software Graphpad Prism. The phosphate concentration for each sample was determined from the standard curve using phosphate standard concentrations. In order to compare samples, the first set (column A) were there was no transfection performed and no compound added, was designated a baseline; the absorbance measurement in this column was set as 100% phosphatase activity.

[3] = system: D425 medulloblastoma cells; assay: D425 medulloblastoma cell viability / growth inhibition (CellTiter-Glo); assay type: cell-based; details: n = 3, 0.1% DMSO
Method: D425 medulloblastoma cells were purchased from SigmaAldrich. D425 meduloblastoma cells were cultured in improved Dulbecco's modified Eagle's medium (DMEM) Richter's modification supplemented with 20% fetal bovine serum and 1% Penicillin-streptomycin. Incubation was performed at 37° C. and 5% CO2.
D425 cells were seeded at 3000-3500 cells/90 μL growth medium per well on 96-well tissue culture plates. Cells were incubated overnight to allow them to recover. Next day cells were treated with tested compounds and incubated for 48 hours.
Cell Proliferation assays in triplicate were performed at each concentration. Compounds test range was 1-30 μM (0, 5, 10, 15, 20, 25, and 30). The compounds were dissolved in DMSO. A series of dilutions were made in 1% DMSO in growth medium so that the final concentration of DMSO is 0.1% in all of treatments.
After treatment, cells were allowed to equilibrate at room temperature for one hour. Cell proliferation was measured by Luminescence quantification using Promega CellTiter-Glo Luminescent Cell Viability Assay. To perform the assay, 90 μL of Celltiter-Glo substrate was added to each well, plates were shake for 2 minutes and allowed to equilibrate for 10 minutes at room temperature. Luminescence intensity was measured using the Spectramax i3x plate reader.
The Luminescence intensity data were analyzed using the computer software Graphpad Prism. In the absence of the compound, the luminescence intensity (Lt) in each data set was defined as 100% cell viability. The percent cell in the presence of each compound was calculated according to the following equation: % Cell=L/Lt, were L=the luminescence intensity in the presence of the compound.
The values of % cell versus a series of compound concentrations (0, 5, 10, 15, 20, 25, and 30 μM) were then plotted using Nonlinear regression analysis of Sigmoidal dose-response curve. IC50 value was determined by the concentration causing a half-maximal percent activity.

## CCCCCCCCc1ccc(CCC(N)(CO)CO)cc1 [fingolimod]
[1]
  development of inflammation, airway hyperreactivity in mouse models of allergic airway disease: inhibited the development of inflammation, airway hyperreactivity

## N=S(=O)(N[C@H]1CCOC(C2c3ccccc3CCc3ccccc32)C1)c1ccc(OC(F)(F)F)cc1 (single isomer, unassigned) [Example 3]
[2]
  activation at 5 µM: 22%
[3]; Medulloblastoma cell, 48 h
  IC50: 8.3 µM

## CCCCCCCOc1ccc(CCC(C)(N)CO)cc1 [AAL(S), 2-amino-4-(4-(heptyloxy)phenyl)-2-methylbutan-1-ol]
[1]
  development of inflammation, airway hyperreactivity in mouse models of allergic airway disease: inhibited the development of inflammation, airway hyperreactivity

## N=S(=O)(N[C@H]1CCO[C@@H](C(c2ccc(F)cc2)c2ccc(F)cc2)C1)c1ccc(OC(F)(F)F)cc1 (single isomer, unassigned) [Example 7-isomer1]
[3]; Medulloblastoma cell, 48 h
  IC50: 14.3 µM

## N=S(=O)(N[C@H]1CCOC(C2c3ccccc3CCc3ccccc32)C1)c1ccc(OC(F)(F)F)cc1 (single isomer, unassigned) [Example 4]
[3]; 48 hours
  IC50: 9.5 µM

## N=S(=O)(N[C@H]1CCO[C@@H](C(c2ccc(F)cc2)c2ccc(F)cc2)C1)c1ccc(OC(F)(F)F)cc1 (single isomer, unassigned) [Example 7-isomer2]
[3]; 48 hours
  IC50: 10.4 µM
